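Interpolation was linear, between the two tested concentrations surrounding the appropriate level; five concentrations were tested over 48 hours in 96-well plates. The concentration for full growth arrest is given as TGI.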 Where a SMILES comes first, the peptide text is derived from it. The star is where a group is joined. Boc = CC(C)(C)OC(=O)*

Test in all cases: NCI anticancer screen, dose series, 48 h
Experiment [1] relates to 786-0 renal.
Experiment [2] deals with BT-549 breast.
Experiment [3] has as its system CCRF-CEM leukemia.
In experiment [4] the test system is DU-145 prostate.
In experiment [5] the test system is MDA-MB-435.
Experiment [6] relates to OVCAR-5 ovarian.
Experiment [7] has as its system SF-268 CNS.

For `CCOC(=O)CCC(NC(=O)c1ccc(Nc2cnc3cc(C(F)(F)F)ccc3n2)cc1)C(=O)OCC` (configuration not stated), the TGI in experiment [1] was above 66.8 µM; in experiment [2] it was 49 µM; in experiment [3], above 100 µM; in experiment [4], above 100 µM; in experiment [5], above 100 µM; in experiment [6], above 100 µM. Moreover, the TGI in experiment [7] is above 78.4 µM.

As for `C/C(=N/NC(=S)N(C)CCc1ccccn1)c1cnccn1`, the TGI was 6.8 µM in experiment [1]; 10.2 µM in experiment [2]; above 68.2 µM in experiment [3]; above 32 µM in experiment [4]; 35.7 µM in experiment [5]; 22 µM in experiment [6]. For the same compound, in experiment [7], the TGI was 14.9 µM.

Consider `COc1cc(/C=C2\N=C(c3ccccc3)N(c3nc4cc(C)c(C)cc4s3)C2=O)cc(OC)c1OC`, for which the TGI was above 100 µM in experiment [1]; above 100 µM in experiment [2]; 21.8 µM in experiment [3]; above 100 µM in experiment [4]; 54.9 µM in experiment [5]; 84.2 µM in experiment [6]. Also, in experiment [7], the TGI was above 100 µM.

For the compound `CCOC(=O)/C(=C\c1ccnc2ccccc12)P(=O)(OCC)OCC`, the TGI in experiment [1] was found to be 6.14 µM; in experiment [2], 4.22 µM; in experiment [3], 1.96 µM; in experiment [4] it was 7.52 µM; in experiment [5], 9.95 µM; in experiment [6], 6.78 µM. Besides, in experiment [7], the TGI worked out at 6.3 µM.

For `CS(=O)(=O)N1CC(CCl)c2ccc(NCCN)cc21` (configuration not stated), the TGI in experiment [1] was 72 µM; in experiment [3], above 100 µM; in experiment [4] it was above 100 µM; in experiment [5], above 100 µM; in experiment [6], above 100 µM; in experiment [7] it was above 100 µM.

Take `CCCC(=O)OCC1(CO)C/C(=C/CC(C(C)C)C(C)C)C(=O)O1` (configuration not stated): the TGI in experiment [1], in experiment [2], in experiment [3], in experiment [4], in experiment [5] and in experiment [6] was above 100 µM in each case. Further, in experiment [7], the TGI was above 100 µM.

Take `CCOC(=O)NC(Nc1ccc(F)c(F)c1)(C(=O)OCC)C(F)(F)F` (configuration not stated): the TGI in experiment [1], in experiment [2], in experiment [3], in experiment [4], in experiment [5] and in experiment [6] was above 100 µM in each case. In experiment [7], this compound displayed a TGI above 100 µM.

In the case of `CCc1cccc(CC)c1Nc1nc2c(s1)C(=O)c1ccccc1C2=O`, the TGI was 36 µM in experiment [1]; above 100 µM in experiment [3]; 45.3 µM in experiment [4]; 31.9 µM in experiment [5]; 39.7 µM in experiment [6]; 41.7 µM in experiment [7].

Consider `CCCCCCCC/C=C\CCCCCCCC(=O)OC[C@]1(CO)CCC(=O)O1`, for which the TGI in experiment [1], in experiment [2], in experiment [3], in experiment [4], in experiment [5] and in experiment [6] was above 100 µM throughout. In experiment [7], this compound came in with a TGI above 100 µM.

For `COc1ccc(/C=N/NC(=O)c2ccccc2Nc2ccccc2C(=O)N/N=C/c2ccc(OC)cc2)cc1`, the TGI in experiment [1], in experiment [2], in experiment [3], in experiment [4], in experiment [5] and in experiment [6] was above 100 µM throughout. Further, the TGI in experiment [7] is above 100 µM.

With `CCOc1ncn(-c2ccc(NC(=S)Nc3cnccn3)cc2)n1`, the TGI in experiment [1], in experiment [2], in experiment [3], in experiment [4], in experiment [5] and in experiment [6] was above 10 µM in each case. The TGI in experiment [7] is above 10 µM.

Regarding `COC(=O)CCCC(=O)NC1=C(Nc2ccccc2)C(=O)c2ccccc2C1=O`, the TGI in experiment [1] worked out at 33.5 µM; in experiment [3], 76.2 µM; in experiment [4], 29.4 µM; in experiment [5], 17.4 µM; in experiment [6] it was 30.7 µM; in experiment [7], 96.3 µM.

Take `CCNc1nc(N)c(C(=O)c2cccs2)s1`: the TGI in experiment [1] was above 100 µM; in experiment [2], above 100 µM; in experiment [4], above 100 µM; in experiment [5], 82.6 µM; in experiment [6], above 100 µM; in experiment [7], above 100 µM.

Consider `COc1cccc(CCn2c(N)c(C(=O)O)c3ccc([N+](=O)[O-])cc3c2=O)c1`, for which the TGI in experiment [1] was above 100 µM; in experiment [2], 87.4 µM; in experiment [3], above 100 µM; in experiment [4] it was above 100 µM; in experiment [5], above 100 µM; in experiment [6] it was above 100 µM. Also, in experiment [7], the TGI was above 100 µM.

In the case of `COc1cc(/C=C/C=C2\CCC/C(=C\C=C\c3ccc(O)c(OC)c3)C2=O)ccc1O`, the TGI in experiment [1] was 63.5 µM; in experiment [2], 60.5 µM; in experiment [3], 8.99 µM; in experiment [4] it was above 100 µM; in experiment [5] it was above 100 µM; in experiment [6], 79.5 µM. The same compound gave a TGI in experiment [7] of 40.4 µM.

With `COC(=O)/C=C\[C@@H]1[C@H](C)N1S(=O)(=O)c1ccc(C)cc1` (some centres not stated), the TGI in experiment [1], in experiment [2], in experiment [3], in experiment [4], in experiment [5] and in experiment [6] was above 100 µM in each case. Further, the TGI in experiment [7] is above 100 µM.

In the case of `O=c1oc2ccccc2cc1-c1csc(Nc2cc(Cl)cc(Cl)c2)n1`, the TGI was 12.9 µM in experiment [1]; above 100 µM in experiment [2]; above 100 µM in experiment [3]; above 100 µM in experiment [4]; above 53.1 µM in experiment [5]; above 100 µM in experiment [6]. This compound registered a TGI in experiment [7] above 100 µM.

In the case of `CN(CCCCN1CCCC1)CCCCN(C)C(=O)Cc1ccc(Cl)c(Cl)c1`, the TGI was 25.7 µM in experiment [1]; 36.7 µM in experiment [2]; 20.7 µM in experiment [3]; 72 µM in experiment [4]; 5.3 µM in experiment [5]; 41.2 µM in experiment [6]. This compound also came in with a TGI in experiment [7] of 39.8 µM.

`COCOc1cc(OC)c(Br)cc1C/C(=N/O)C(=O)OC`: the TGI in experiment [1], in experiment [2], in experiment [3], in experiment [4], in experiment [5] and in experiment [6] was above 100 µM in each case. Besides, the TGI in experiment [7] was above 100 µM.

In the case of `CC(=O)/C(N=Nc1ccc(-n2c(C)nc3ccc(Br)cc3c2=O)cc1)=C(/C)O`, the TGI in experiment [1], in experiment [2], in experiment [3], in experiment [4], in experiment [5] and in experiment [6] was above 100 µM in each case. In experiment [7], this compound showed a TGI above 100 µM.

For the compound `C[n+]1c2ccccc2c(C(=O)NC(CCCN=C(N)N)C(=O)O)c2ccccc21` (configuration not stated), the TGI in experiment [1], in experiment [2], in experiment [4], in experiment [5], in experiment [6] and in experiment [7] was above 100 µM throughout.

Consider `CC(=O)c1cccc(Nc2c3ccccc3nc3occc23)c1`, for which the TGI in experiment [1] was 27.6 µM; in experiment [2] it was 54.3 µM; in experiment [3], 18.8 µM; in experiment [4], above 100 µM; in experiment [5], 2.85 µM; in experiment [6], above 100 µM. In addition, the TGI in experiment [7] was above 100 µM.

In the case of `CC(=O)/C=C(/C=N/O)c1ccccc1`, the TGI in experiment [1], in experiment [2], in experiment [3], in experiment [5], in experiment [6] and in experiment [7] was above 100 µM each time.

Take `CN(C)Cc1cc(N=Nc2ccccc2Cl)ccc1O`: the TGI in experiment [1] was 35.4 µM; in experiment [2], 85.4 µM; in experiment [3] it was 54.2 µM; in experiment [4] it was 71.4 µM; in experiment [5] it was 32.9 µM; in experiment [6], 63.2 µM. Also, the TGI in experiment [7] is above 100 µM.

Turning to `CN(C)Cc1cc(C(=O)/C=C/c2ccc(Br)cc2)cc(CN(C)C)c1O`, the TGI in experiment [1] is 19 µM; in experiment [3] it was 26.7 µM; in experiment [4], 25.1 µM; in experiment [5], 37.9 µM; in experiment [6], 34 µM; in experiment [7], 50.3 µM.

As for `O=C1NC(=O)[C@@H](OCC2CCCCC2)[C@@H]2OCC3OC(C(O)C3O)C12` (some centres not stated), the TGI in experiment [1], in experiment [3], in experiment [4], in experiment [5], in experiment [6] and in experiment [7] was above 100 µM in each case.

As for `COC(=O)c1ccc(/C=C2\Cc3ccccc3C2=O)cc1`, the TGI in experiment [1], in experiment [2], in experiment [3], in experiment [4], in experiment [5] and in experiment [7] was above 100 µM throughout.

With `CC(C)(O)/C=C\P(C)(=O)c1ccccc1` (configuration not stated), the TGI in experiment [1], in experiment [4], in experiment [5], in experiment [6] and in experiment [7] was above 100 µM throughout.

As for `COc1cc(OC)cc(-n2c(N)c(-c3nc4ccccc4s3)c3ccc([N+](=O)[O-])cc3c2=O)c1`, the TGI in experiment [1], in experiment [2], in experiment [3], in experiment [4], in experiment [5] and in experiment [7] was above 100 µM throughout.

For `CC(C)(C)OC(=O)NNC(=O)C1Cc2ccccc2OC1=O` (configuration not stated), the TGI in experiment [1], in experiment [2], in experiment [4], in experiment [5], in experiment [6] and in experiment [7] was above 100 µM throughout.

On to `CN(C(=O)[C@@H](NC(=O)OC(C)(C)C)c1ccccc1)[C@H]1CCCC[C@@H]1N1CCCC1`, for which the TGI in experiment [1], in experiment [2], in experiment [4], in experiment [5], in experiment [6] and in experiment [7] was above 100 µM each time.

Regarding `COc1cc(CNc2nc3ccccc3n2Cc2ccccc2)cc(CN2CCOCC2)c1O`, the TGI in experiment [1] was 31.6 µM; in experiment [3], above 100 µM; in experiment [4] it was above 100 µM; in experiment [5] it was 44.7 µM; in experiment [6], 87.8 µM; in experiment [7], above 100 µM.

With `Cc1ccc(S(=O)(=O)NC(=O)NC(C(=O)O)C(C)O)cc1` (configuration not stated), the TGI in experiment [1], in experiment [2], in experiment [3], in experiment [4], in experiment [6] and in experiment [7] was above 100 µM throughout.

`COC(=O)C(Cc1c[nH]c2ccccc12)NC(=O)C(Cc1c[nH]c2ccccc12)NC(=O)C(Cc1c[nH]c2ccccc12)NC(=O)OC(C)(C)C` (stereo not drawn) (Boc-Trp-Trp-Trp-OMe; configuration not given here): the TGI in experiment [1] is 31.7 µM; in experiment [2], 33.8 µM; in experiment [6], 32 µM.

For `FC(F)(F)c1ccc2c(c1)nc(Cc1ccc(Cl)c(Cl)c1)n2CC1CCCN2CCCCC12` (configuration not stated), the TGI in experiment [1] was 30.7 µM; in experiment [2], 85.2 µM; in experiment [4], above 100 µM; in experiment [5] it was above 100 µM; in experiment [6] it was 46.2 µM; in experiment [7] it was above 100 µM.

As to `N#Cc1nc(Sc2cnsn2)c(Sc2cnsn2)nc1C#N`, the TGI in experiment [1] was determined as 33.6 µM; in experiment [2], 39.2 µM; in experiment [4], 35.5 µM; in experiment [5], 33.8 µM; in experiment [6], 38.8 µM; in experiment [7], 40.6 µM.

In the case of `CN(C)/N=C1\C=C2CC[C@H](O[Si](C)(C)C(C)(C)C)[C@@]2(C)CC1`, the TGI in experiment [1] turned out to be 31.9 µM; in experiment [3], 44 µM; in experiment [4] it was 33.2 µM; in experiment [5], 32 µM; in experiment [6], 32.5 µM; in experiment [7], 39.6 µM.

For the compound `NC(N)=NCc1ccc2c(c1)OCO2`, the TGI in experiment [1], in experiment [3], in experiment [4], in experiment [5], in experiment [6] and in experiment [7] was above 100 µM each time.

(Values after PubChem BioAssay (NCI).)
